These molecules were tested against HDAC2 (Homo sapiens, UniProt Q92769) (assay: HDAC2 fluorescence inhibition assay (tBoc-Lys(Ac)-AMC)).
Chain of HDAC2 (Q92769 with tags, fused parts or gaps): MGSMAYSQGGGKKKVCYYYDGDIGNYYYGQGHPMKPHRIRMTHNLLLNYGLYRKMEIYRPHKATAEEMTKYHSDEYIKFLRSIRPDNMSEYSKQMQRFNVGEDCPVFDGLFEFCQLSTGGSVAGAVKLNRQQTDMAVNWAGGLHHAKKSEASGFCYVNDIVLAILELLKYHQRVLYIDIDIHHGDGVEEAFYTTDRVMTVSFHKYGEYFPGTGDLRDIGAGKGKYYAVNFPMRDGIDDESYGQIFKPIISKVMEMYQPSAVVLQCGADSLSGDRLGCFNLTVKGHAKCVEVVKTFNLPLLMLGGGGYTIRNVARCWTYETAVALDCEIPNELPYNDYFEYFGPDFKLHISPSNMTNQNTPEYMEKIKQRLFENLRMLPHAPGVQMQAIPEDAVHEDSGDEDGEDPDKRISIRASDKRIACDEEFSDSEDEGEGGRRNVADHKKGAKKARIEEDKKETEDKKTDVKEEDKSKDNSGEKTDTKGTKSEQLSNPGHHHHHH

Nc1ccccc1NC(=O)c1ccc(Cn2cc(C(=O)NCCCN3CCOCC3)cn2)cc1 [Example 154, 1-(4-(2-aminophenylcarbamoyl)benzyl)-N-(3-morpholinopropyl)-1H-pyrazole-4-carboxamide] and CN1CCN(CCCNC(=O)c2cnn(Cc3ccc(C(=O)Nc4ccccc4N)cc3)c2)CC1 [Example 156, 1-(4-(2-aminophenylcarbamoyl)benzyl)-N-(3-(4-methylpiperazin-1-yl)propyl)-1H-pyrazole-4-carboxamide] cannot be ordered by IC50: no more than 50 nM for the first, 50 to 100 nM for the second.

Compared with Nc1ccccc1NC(=O)c1ccc(Cn2cc(C(=O)O)cn2)cc1 [Example 122, 1-(4-(2-aminophenylcarbamoyl)benzyl)-1H-pyrazole-4-carboxylic acid], Nc1ccccc1NC(=O)c1ccc(Cn2cc(C(=O)NCCO)cn2)cc1 [Example 143, 1-(4-(2-aminophenylcarbamoyl)benzyl)-N-(2-hydroxyethyl)-1H-pyrazole-4-carboxamide] is lower in IC50: no less than 500 nM for the first, 50 to 100 nM for the second.

Nc1ccccc1NC(=O)c1ccc(Cn2cc3ccc(C(F)(F)F)cc3n2)cc1 [Example 121, N-(2-aminophenyl)-4-((6-(trifluoromethyl)-2H-indazol-2-yl)methyl)benzamide] and Cc1c2cc(C(F)(F)F)ccc2nn1Cc1ccc(C(=O)Nc2ccccc2N)cc1 [Example 95, N-(2-aminophenyl)-4-((3-methyl-5-(trifluoromethyl)-2H-indazol-2-yl)methyl)benzamide] cannot be ordered by IC50: no more than 50 nM for the first, no more than 50 nM for the second.

First: Cc1nn(Cc2ccc(C(=O)Nc3ccccc3N)cc2)c2c(F)cccc12 [Example 52, N-(2-aminophenyl)-4-((7-fluoro-3-methyl-1H-indazol-1-yl)methyl)benzamide]
Second: Cc1nn(Cc2ccc(C(=O)Nc3ccccc3N)cc2)c2ccc(F)cc12 [Example 70, N-(2-aminophenyl)-4-((5-fluoro-3-methyl-1H-indazol-1-yl)methyl)benzamide]
The IC50 of the first is lower: 50 to 100 nM for the first, 100 to 500 nM for the second. The first is the more potent here.

Nc1ccccc1NC(=O)c1ccc(Cn2ncc3c(F)cccc32)cc1 [Example 48, N-(2-aminophenyl)-4-((4-fluoro-1H-indazol-1-yl)methyl)benzamide] and Nc1ccccc1NC(=O)c1ccc(Cn2ncc3cccc(F)c32)cc1 [Example 46, N-(2-aminophenyl)-4-((7-fluoro-1H-indazol-1-yl)methyl)benzamide] fall in the same range of IC50: 50 to 100 nM for the first, 50 to 100 nM for the second.

CC(C)CNC(=O)c1cnn(Cc2ccc(C(=O)Nc3ccccc3N)cc2)c1 [Example 150, 1-(4-(2-aminophenylcarbamoyl)benzyl)-N-isobutyl-1H-pyrazole-4-carboxamide] and COCCCNC(=O)c1cnn(Cc2ccc(C(=O)Nc3ccccc3N)cc2)c1 [Example 152, 1-(4-(2-aminophenylcarbamoyl)benzyl)-N-(3-methoxypropyl)-1H-pyrazole-4-carboxamide] cannot be ordered by IC50: no more than 50 nM for the first, no more than 50 nM for the second.

Nc1ccccc1NC(=O)c1ccc(Cn2nnc3ccccc32)cc1 [Example 100, 4-((1H-benzo[d][1,2,3]triazol-1-yl)methyl)-N-(2-aminophenyl)benzamide] and Nc1ccccc1NC(=O)c1ccc(Cn2nc(N)c3ccccc32)cc1 [Example 96, 4-((3-amino-1H-indazol-1-yl)methyl)-N-(2-aminophenyl)benzamide] fall in the same range of IC50: 50 to 100 nM for the first, 50 to 100 nM for the second.

Nc1ccccc1NC(=O)c1ccc(Cn2cc3c(F)cccc3n2)cc1 [Example 49, N-(2-aminophenyl)-4-((4-fluoro-2H-indazol-2-yl)methyl)benzamide] and Cc1c2ccc(F)cc2nn1Cc1ccc(C(=O)Nc2ccccc2N)cc1 [Example 69, N-(2-aminophenyl)-4-((6-fluoro-3-methyl-2H-indazol-2-yl)methyl)benzamide] cannot be ordered by IC50: no more than 50 nM for the first, 50 to 100 nM for the second.

First: COc1cccc2cnn(Cc3ccc(C(=O)Nc4ccccc4N)cc3)c12 [Example 84, N-(2-aminophenyl)-4-((7-methoxy-1H-indazol-1-yl)methyl)benzamide]
Second: Nc1ccccc1NC(=O)c1ccc(Cn2ncc3ccc(F)cc32)cc1 [Example 36, N-(2-aminophenyl)-4-((6-fluoro-1H-indazol-1-yl)methyl)benzamide]
The IC50 of the first is higher: 100 to 500 nM for the first, 50 to 100 nM for the second. The second is the more potent here.

COc1ccc2c(C)nn(Cc3ccc(C(=O)Nc4ccccc4N)cc3)c2c1 [Example 66, N-(2-aminophenyl)-4-((6-methoxy-3-methyl-1H-indazol-1-yl)methyl)benzamide] and COc1ccc2c(cnn2Cc2ccc(C(=O)Nc3ccccc3N)cc2)c1 [Example 78, N-(2-aminophenyl)-4-((5-methoxy-1H-indazol-1-yl)methyl)benzamide] cannot be ordered by IC50: no more than 50 nM for the first, no more than 50 nM for the second.

Compared with Nc1ccccc1NC(=O)c1ccc(Cn2ncc3cc([N+](=O)[O-])ccc32)cc1 [Example 5, N-(2-aminophenyl)-4-((5-nitro-1H-indazol-1-yl)methyl)benzamide], Nc1ccccc1NC(=O)c1ccc(Cn2nccc2N)cc1 [Example 132, 4-((5-amino-1H-pyrazol-1-yl)methyl)-N-(2-aminophenyl)benzamide] is higher in IC50: no more than 50 nM for the first, no less than 500 nM for the second.

Nc1ccccc1NC(=O)c1ccc(Cn2ncc3c2CCCC3)cc1 [Example 130, N-(2-aminophenyl)-4-((4,5,6,7-tetrahydro-1H-indazol-1-yl)methyl)benzamide] and Cc1cc(C)n(Cc2ccc(C(=O)Nc3ccccc3N)cc2)n1 [Example 124, N-(2-aminophenyl)-4-((3,5-dimethyl-1H-pyrazol-1-yl)methyl)benzamide] fall in the same range of IC50: 100 to 500 nM for the first, 100 to 500 nM for the second.

Nc1ccccc1NC(=O)c1ccc(Cn2ncc3cc(NC(=O)OCc4ccccc4)ccc32)cc1 [Example 15, Benzyl 1-(4-((2-aminophenyl)carbamoyl)benzyl)-1H-indazol-5-ylcarbamate] and Nc1ccccc1NC(=O)c1ccc(Cn2cc(C(=O)NCc3ccccn3)cn2)cc1 [Example 126, 1-(4-(2-aminophenylcarbamoyl)benzyl)-N-(pyridin-2-ylmethyl)-1H-pyrazole-4-carboxamide] cannot be ordered by IC50: no more than 50 nM for the first, no more than 50 nM for the second.

Cc1c2cc(F)c(F)cc2nn1Cc1ccc(C(=O)Nc2ccccc2N)cc1 [Example 57, N-(2-aminophenyl)-4-((5,6-difluoro-3-methyl-2H-indazol-2-yl)methyl)benzamide] and COc1cc2nn(Cc3ccc(C(=O)Nc4ccccc4N)cc3)cc2cc1O [Example 97, N-(2-aminophenyl)-4-((5-hydroxy-6-methoxy-2H-indazol-2-yl)methyl)benzamide] fall in the same range of IC50: 50 to 100 nM for the first, 50 to 100 nM for the second.

Nc1ccccc1NC(=O)c1ccc(Cn2cc3cc([N+](=O)[O-])ccc3n2)s1 [Example 20, N-(2-Aminophenyl)-5-((5-nitro-2H-indazol-2-yl)methyl)thiophene-2-carboxamide] and Nc1ccc(-c2ccccc2)cc1NC(=O)c1ccc(Cn2cc3cc([N+](=O)[O-])ccc3n2)cc1 [Example 17, N-(4-Amino-biphenyl-3-yl)-4-(5-nitro-indazol-2-ylmethyl)-benzamide] cannot be ordered by IC50: no more than 50 nM for the first, no more than 50 nM for the second.

First: Nc1ccc(-c2cccs2)cc1NC(=O)c1ccc(Cn2cc3c(F)cc(F)cc3n2)cc1 [Example 112, N-(2-amino-5-(thiophen-2-yl)phenyl)-4-((4,6-difluoro-2H-indazol-2-yl)methyl)benzamide]
Second: Nc1ccccc1NC(=O)c1ccc(Cn2cc(C(=O)NCc3ccncc3)cn2)cc1 [Example 146, 1-(4-(2-aminophenylcarbamoyl)benzyl)-N-(pyridin-4-ylmethyl)-1H-pyrazole-4-carboxamide]
The IC50 of the first is higher: 100 to 500 nM for the first, no more than 50 nM for the second.

From patent US7732475B2, “Histone deacetylase inhibitors” (Takeda San Diego, Inc., priority 2005, dated 2010)
